We go through 30 compounds from patent US20120270917A1 (The Trustees of the University of Pennsylvania, priority 2009, published 2012).

For the test, the target named is T1, AM2 (Influenza A virus, UniProt P0DOF5).
T1 construct: expressed in transfected cells
As to the kind of experiment: cell-based. Particulars: for AM2 % inhibition at μM: concentration not given; for AM2 % inhibition at μM / IC50: Table 2.

Setting [1] is: read-out: AM2 % inhibition at 100 uM, 100 uM, Table 1.
The mark [2] stands for this setting: Oocytes, 100 μM, 2 min, mean ± SE, read-out: AM2 wt % of inhibition by 100 μM 2 min.

Where a name gives a salt, the structure may show the parent alone. Read-outs that look alike come from different tables or passages of the source.

T1 sequence (P0DOF5 whole entry): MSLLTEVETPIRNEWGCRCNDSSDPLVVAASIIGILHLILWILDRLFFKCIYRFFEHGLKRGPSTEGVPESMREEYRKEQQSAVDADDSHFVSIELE

For the compound `O=[N+]([O-])C12CC3CC(CC(C3)C1)C2` [Compound 54, 1-nitroadamantane], the inhibition at 100 µM under setting [1] was determined as 87.2%.
On to `CC(NC(=N)N)C12CC3CC(CC(C3)C1)C2` (stereo not drawn) [Compound 40], for which the inhibition at 100 µM under setting [1] was determined as 94%.
With `Cl.NC1C[C@@H]2C[C@@H]3CC1[C@H](C2)C3` (stereo partly drawn) [Compound S1, (2S,3aS,5R)-octahydro-1H-2,5-methanoinden-7-aminium chloride], the “AM2 % inhibition at μM” value was determined as 94.2%.
Take `NC12CC3CC(C1)CC(O)(C3)C2` [Compound 38]: the inhibition at 100 µM under setting [1] came to 87%.
Consider `OC1(C(F)(F)F)C2CC3CC(C2)CC1C3` (stereo not drawn) [Compound S8], for which the 50% inhibitory concentration (IC50) is 13.8 µM and the “AM2 % inhibition at μM” value stood at 82.9%.
Turning to `NOC12CC3CC(CC(C3)C1)C2` [Compound 42, O-adamantylhydroxylamine], the inhibition at 100 µM under setting [1] was determined as 87%.
For `NC1CSC2(SC1)C1CC3CC(C1)CC2C3` (stereo not drawn) [Compound 45], under setting [1], the inhibition at 100 µM is 64%.
Turning to `O=C1C2CC3CC(C2)CC1C3` [Compound S13], the concentration for half-maximal inhibition (IC50) was found to be 28.8 µM and the “AM2 % inhibition at μM” value amounted to 69.6%.
Take `OC1(C(F)(F)F)C2CC3CC(C2)CC1C3` (stereo not drawn) [Compound 53, 2-trifluoromethyl-2-adamantol]: the inhibition at 100 µM under setting [1] was 82.9%.
Turning to `Cl.NC12CCC3CC(CC(C3)C1)C2` [Compound S12], the “AM2 % inhibition at μM” value came to 92%.
Turning to `O=[N+]([O-])C12CC3CC(CC(C3)C1)C2` [Compound S9], the “AM2 % inhibition at μM” value was found to be 87.2%.
Regarding `N=C(N)C12CC3CC(CC(C3)C1)C2` [Compound 44, Adamantane amidine hydrochloride], the inhibition at 100 µM under setting [1] worked out at 70%.
Consider `O=CC12CC3CC(CC(C3)C1)C2` [Compound 49, 1-adamantanecarboaldehyde], for which the inhibition at 100 µM under setting [1] was 65.1%.
For `N=C(NO)C12CC3CC(CC(C3)C1)C2` [Compound 46, N-hydroxyadamantanecarboximidamide], the inhibition at 100 µM under setting [1] stood at 72.3%.
In the case of `NC1(C(F)(F)F)C2CC3CC(C2)CC1C3` (stereo not drawn) [Compound S6], the half-inhibitory concentration (IC50) stood at 10.1 µM and the “AM2 % inhibition at μM” value is 86.3%.
`NC(=O)C12CC3CC(CC(C3)C1)C2` [Compound 48]: the inhibition at 100 µM under setting [1] is 74.9%.
For the compound `C1NC2CC3CC1CC(C3)C2.Cl` [Compound 47, 4-Azatricyclo[4.3.1.1^3,8]undecan hydrochloride], the inhibition at 100 µM under setting [1] came out at 83.8%.
With `NS(=O)(=O)NC1C2CC3CC(C2)CC1C3` (stereo not drawn) [Compound S7], the “AM2 % inhibition at μM” value amounted to 81.6%.
Consider `NC12CC3CC(CC(C3)C1)C2` [Amantadine, reference compound], for which, under setting [2], the inhibition at 100 µM is 90.8 ± 2.5%.
Consider `CC1(N)C2CC3CC(C2)CC1C3` (stereo not drawn) [Compound S5], for which the “AM2 % inhibition at μM” value was determined as 65.0%.
On the same count and under the same terms, the result for `CC1(O)C2CC3CC(C2)CC1C3` (stereo not drawn) [Compound S4] reads 85.8%.
As for `Cl.Cl.N=C(N)NC(=N)NC12CC3CC(CC(C3)C1)C2` [Compound 41], under setting [1], the inhibition at 100 µM amounted to 70%.
`O=C1C2CC3CC(C2)CC1C3` [Compound 50]: the inhibition at 100 µM under setting [1] is 69.6%.
As for `O=[N+]([O-])C1C2CC3CC(C2)CC1C3` (stereo not drawn) [Compound S3], the “AM2 % inhibition at μM” value is recorded as 85.6%.
As to `CC(N)C12CC3CC(CC(C3)C1)C2` (stereo not drawn) [Rimantadine, reference compound], under setting [2], the inhibition at 100 µM worked out at 91.2 ± 0.9%.
As for `O=C1C2CC3CC1CC(C2)C3=O` [Compound 52, 2,6-diadamantone], the inhibition at 100 µM under setting [1] came out at 59.1%.
Same read-out and setting: under `N=C(N)NC12CC3CC(CC(C3)C1)C2` [Compound 39, 1-(adamantyl)guanidine] stands 97%.
For the compound `Cl.NC1CCC2(CC1)C1CC3CC(C1)CC2C3` (stereo not drawn) [Compound S15, (1r, 3r,5r,7r)-spiro[adamantane-2,1′-cyclohexan]-4′-aminium chloride], the inhibition at 100 µM under setting [2] was determined as 89.1 ± 1.3%.
Consider `Cl.NC12CC3CCC(CC(C3)C1)C2` [Compound S2, tricyclo[4.3.1.13,8]undecan-1-aminium chloride], for which the “AM2 % inhibition at μM” value was determined as 81.3%.
On to `Cc1nc[nH]c1/C=N/OC12CC3CC(CC(C3)C1)C2` [Compound 43, 5-Methyl-3H-imidazole-4-carbaldehyde O-adamantan-1-yl-oxime], for which the inhibition at 100 µM under setting [1] worked out at 81%.
